# Assay results published in patent US20170280720A1, “ARGININE […] INHIBITORS AND USES THEREOF” (EPIZYME, INC., priority 2014, published 2017).
# Target: T1, Human CARM1 (PRMT4) (Homo sapiens, UniProt Q86X55)
# T1 construct: Flag-CARM1-His; made in house; host or cells: HEK 293F cells (BacMam baculovirus, pFastBacMam)
# T1 sequence (Q86X55 2-585 isoform Q86X55-1): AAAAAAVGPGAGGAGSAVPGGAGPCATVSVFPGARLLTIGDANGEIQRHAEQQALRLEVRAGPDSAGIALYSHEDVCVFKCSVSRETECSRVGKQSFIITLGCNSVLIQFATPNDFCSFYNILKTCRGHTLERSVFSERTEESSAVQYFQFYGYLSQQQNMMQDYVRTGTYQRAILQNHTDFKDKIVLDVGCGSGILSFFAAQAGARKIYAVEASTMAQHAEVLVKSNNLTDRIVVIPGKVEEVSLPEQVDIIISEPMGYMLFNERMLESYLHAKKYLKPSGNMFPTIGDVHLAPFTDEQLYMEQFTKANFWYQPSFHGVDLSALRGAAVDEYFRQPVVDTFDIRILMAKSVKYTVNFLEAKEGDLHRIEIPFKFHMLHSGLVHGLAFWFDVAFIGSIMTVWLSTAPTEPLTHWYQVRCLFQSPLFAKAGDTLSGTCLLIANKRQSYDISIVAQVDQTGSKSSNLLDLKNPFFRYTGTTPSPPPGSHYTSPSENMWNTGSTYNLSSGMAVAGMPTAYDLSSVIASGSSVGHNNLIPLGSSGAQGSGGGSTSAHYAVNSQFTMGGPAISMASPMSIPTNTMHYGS
# Assay: CARM1 biochemical assay (3H-SAM Flashplate, peptide substrate)
# Settings: read-out: CARM1_ IC50
# In short: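 FLAG/His-tagged human CARM1 (isoform 1, Δ539-561, baculovirus-expressed), 0.25 nM, preincubated 30 min at room temperature with compound (2% DMSO) in 20 mM Bicine pH 7.6, then reacted with 30 nM 3H-SAM and 250 nM biotinylated H3 16-30 peptide (R26 monomethyl). Stopped with 300 uM cold SAM; labelled peptide captured on streptavidin Flashplate; % inhibition versus DMSO and 1 mM SAH controls fitted to a 4- or 3-parameter curve.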
row,IC50,Compound
1,23.9 nM,CNCCN(C)Cc1cccc(-c2cc(C(=O)NCCCCCC(=O)NCC3CCOCC3)c3cnn(C(C)C)c3n2)c1 [Compound 112]
2,17.9 nM,CNCCN(C)Cc1cccc(-c2nc(NC3CC3)c3cnn(C4CC4)c3n2)c1 [Compound 114]
3,6870 nM,COc1ccccc1-c1nc2ccc(-c3ccc(CNCCN)cc3)cc2[nH]1 [Compound 115]
4,23.4 nM,CC(C)n1ncc2c(NC(=O)N(C)C)cc(-c3cccc(CN(C)CCN)c3)nc21 [Compound 116]
5,33.4 nM,CNCCN(C)Cc1cccc(-c2cc(C(=O)NCCCCCC(=O)NCc3ccn(C)n3)c3cnn(C(C)C)c3n2)c1 [Compound 117]
6,18 nM,CNCCN(C)Cc1cccc(-c2cc(C(=O)NCCCCC(=O)NCC3CCOCC3)c3cnn(C(C)C)c3n2)c1 [Compound 118]
7,4.77 nM,CN(CCN)Cc1cccc(-c2nc(N(C)C3CCOCC3)c3cnn(C4CC4)c3n2)c1 [Compound 119]
8,35.6 nM,CNCCN(C)Cc1cccc(-c2cc(C(=O)NCc3cc(C)nn3C)c3cnn(C(C)C)c3n2)c1 [Compound 120]
9,70.2 nM,CNCCN(C)Cc1cccc(-c2cc(NC)c3cnn(C(C)C)c3n2)c1 [Compound 121]
10,13.5 nM,CNCCN(C)Cc1cccc(-c2cc(C(=O)NCCCCC(=O)NCc3ccn(C)n3)c3cnn(C(C)C)c3n2)c1 [Compound 122]
11,29.6 nM,CNCCN(C)Cc1cccc(-c2cc(NC(=O)N(C)C)c3cnn(C(C)C)c3n2)c1 [Compound 123]
12,75.5 nM,CNCCN(C)Cc1cccc(-c2cc(OC)c3cnn(C(C)C)c3n2)c1 [Compound 124]
13,75.8 nM,CC(C)n1ncc2c(C(=O)N[C@@H](C)c3ccccc3)cc(-c3cccc(CNCCN)c3)cc21 [Compound 125]
